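Cells were grown in 96-well plates and exposed to each compound for 48 hours at five concentrations; endpoints were interpolated linearly between bracketing concentrations, or set to the highest concentration if not reached. At the TGI there is no net growth.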
Tests used:
Assay in all cases: NCI-60 cell line screen, 48 h
[1] = tested on: UACC-62 melanoma
[2] = tested on: SK-MEL-2 melanoma
[3] = tested on: A498 renal
[4] = tested on: SW-620 colon
[5] = tested on: T-47D breast
[6] = tested on: MCF7 breast
[7] = tested on: OVCAR-5 ovarian
[8] = tested on: SK-MEL-5 melanoma
[9] = tested on: HL-60(TB) leukemia
[10] = tested on: RXF 393 renal

Structure (SMILES) | TGI [1] [µM] | TGI [2] [µM] | TGI [3] [µM] | TGI [4] [µM] | TGI [5] [µM] | TGI [6] [µM] | TGI [7] [µM] | TGI [8] [µM] | TGI [9] [µM] | TGI [10] [µM]
CC(=O)N[C@@H](Cc1ccc(O)cn1)C(=O)NC1CCCCC1 | > 100 | > 100 | > 100 | > 100 | > 100 | > 100 | > 100 | > 100 |  | 
COc1cc(/C=C2/Oc3c(OC)cccc3C2=O)ccc1O | > 100 | > 100 | > 100 | > 100 |  | > 100 | > 100 | > 100 | > 100 | > 100
COC(=O)C(NC(=O)c1ccccc1)C(c1c(O)cc(O)cc1O)P(=O)(OC)OC (stereo not drawn) | > 100 | > 100 | > 100 | > 100 |  |  | > 100 | > 100 | > 100 | 
CCCCCCCCCCCCC1N=C(N)N2CCCC2=C1C(=O)OC (stereo not drawn) | 3.36 | 3.64 | 47.1 | 3.05 | 3.73 |  | 13 | 4.88 |  | 69.4
CCOC(=O)C1C(c2ccc(OC)cc2)c2c([nH]n(-c3ccccc3)c2=O)CC1(C)O (stereo not drawn) | > 100 | > 100 | > 100 | > 100 | > 100 | > 100 | > 100 | > 100 | 11.1 | 
NC(N)=NCCCC(NC(=O)c1c2ccccc2nc2ccccc12)C(=O)O (stereo not drawn) | > 100 | > 100 | > 100 | > 100 |  | > 100 | > 100 | > 100 |  | 
CC(=O)O[C@H]1C(=O)[C@@]2(C)[C@H]([C@H](OC(=O)c3ccco3)[C@]3(O)C[C@H](OC(=O)[C@H](O)[C@@H](NC(=O)c4ccccc4)c4ccccc4)C(C)=C1C3(C)C)[C@]1(OC(C)=O)CO[C@@H]1C[C@@H]2O | > 25 | 0.578 | > 25 | > 25 | > 25 | > 25 | > 25 |  | 0.123 | 3.76
Cc1ccc(-n2cc(-c3ccc(Cl)cc3)c3c(=N)n(N)cnc32)cc1 | 26.4 | 26.8 | 29.5 | 25.1 |  | 23.2 | 27.9 | 20.1 | 31.7 | 15.7
CCCCCCCCCCCCC1N=C(N)NC2(CCCO2)C1C(=O)OC (stereo not drawn) | 14.8 | 20.9 | 47.7 | 7.65 | 27.7 | 9.2 | 22.1 | 23.7 |  | 6.12
C[n+]1c(-c2ccc(/C=N/NC(=O)C(=O)N/N=C/c3ccc(-c4cn5ccccc5[n+]4C)cc3)cc2)cn2ccccc21 | > 100 | > 100 | > 100 | > 100 |  | > 100 | > 100 | > 100 | > 100 | > 100
Cn1c(NC(=O)NC23CC4CC(CC(C4)C2)C3)nc2ccccc21 | > 100 | > 100 |  | > 100 |  |  | > 100 | > 100 | > 100 | 57.4
COC1OC(C(=O)O)C2OC(C)(C)OC12 (stereo not drawn) | > 100 | > 100 |  | > 100 |  | > 100 | > 100 | > 100 |  | > 100

— PubChem BioAssay (NCI)
